Source: patent US6509356B1, “1-(4-(Substituted alkoxy)benzyl)naphthalene compounds having estrogen inhibitory activity” (Eli Lilly and Company, priority 1997, dated 2003)
Counter-ions that a name gives are not always drawn.

system: MCF-7 breast adenocarcinoma cells; test: MCF-7 Proliferation Assay (tritiated thymidine incorporation); format: cell-based; conditions: Homo sapiens, MCF7; MCF-7 cells (ATCC HTB 22) in DCC-FBS assay medium, 48 hours with drug, then tritiated thymidine pulse for 4 hours; read-out: Inhibition of MCF7 cell proliferation: ED50
Source text: Biological Activity of the Compounds of the Present Invention—MCF-7 Proliferation Assay
The data reported in each of the Examples given above for inhibition of MCF-7 cell proliferation were obtained in an assay which determined each compound's ability to inhibit the proliferation of MCF-7 breast adenocarcinoma cells.
In the assay, these cells (ATCC HTB 22) are maintained in minimal essential medium, phenol red-free, (Sigma, St. Louis, Mo.) supplemented with 10% (V/V) fetal bovine serum (FBS), L-glutamine (2 mM), sodium pyruvate (1 mM), HEPES {(N-[2-hydroxyethyl]piperazine-N′-[2-ethanesulfonic acid] 10 mM}, non-essential amino acids and bovine insulin (1 ug/mL) (maintenance medium). Ten days prior to assay, MCF-7 cells are switched to maintenance medium supplemented with 10% dextran coated charcoal stripped fetal bovine serum (DCC-FBS) assay medium) in place of 10% FBS to deplete internal stores of steroids. MCF-7 cells are removed from maintenance flasks using cell dissociation medium (Ca++/Mg++ free HBSS (phenol red-free) supplemented with 10 mM HEPES and 2 mM EDTA). Cells are washed twice with assay medium and adjusted to 80,000 cells/mL. Approximately […] (8,000 cells) are added to flat-bottom microculture wells (Costar 3596) and incubated at 37° C. in a 5% CO2 humidified incubator for 48 hours to allow for cell adherence and equilibration after transfer. Serial dilutions of drugs or DMSO as a diluent control are prepared in assay medium and […] to triplicate microcultures followed by […] assay medium for a final volume of […]. After an additional 48 hours at 37° C. in a 5% CO2 humidified incubator, microcultures are pulsed with tritiated thymidine (1 uCi/well) for 4 hours. Cultures are terminated by freezing at −70° C. for 24 hours followed by thawing and harvesting of microcultures using a Skatron Semiautomatic Cell Harvester. Samples are counted by liquid scintillation using a Wallac BetaPlace β counter.

Q: With `CN1CCCCC1COc1ccc(Cc2c(-c3ccc(O)cc3)ccc3cc(O)ccc23)cc1` (centres unmarked) [Example 4, 6-hydroxy-2-(4-hydroxyphenyl)-1-[4-(N-methylpiperidin-2-yl)-methoxybenzyl]naphthalene hydrochloride] as the compound, how does the EC50 read?
A: Its EC50 is 2 nM.

Q: With `CC1CN(CCOc2ccc(Cc3c(-c4ccc(O)cc4)ccc4cc(O)ccc34)cc2)CC(C)O1` (centres unmarked) [Example 13, 6-hydroxy-2-(4-hydroxyphenyl)-1-[4-(2-(2,6-dimethylmorpholin-4-yl)ethoxy)benzyl]naphthalene hydrochloride] as the compound, how does the EC50 read?
A: Its EC50 is 20 nM.

Q: How did the EC50 turn out when `CCN(CCOc1ccc(Cc2c(-c3ccc(O)cc3)ccc3cc(O)ccc23)cc1)C(=O)Nc1cc(Cl)ccc1C` [Example 11, N-ethyl-N-[4-(2-(6-hydroxy-2-(4-hydroxyphenyl)naphth-1-yl-methyl)phenoxy)ethyl]-N′-5-chloro-2-methylphenyl urea] was run?
A: The EC50 was 10 nM.

Q: How did the EC50 turn out when `O=C1CCCN1CCOc1ccc(Cc2c(-c3ccc(O)cc3)ccc3cc(O)ccc23)cc1` [Example 15, 6-hydroxy-2-(4-hydroxyphenyl)-1-[4-(2-(pyrollidinon-1-yl)ethoxy)benzyl]naphthalene] was run?
A: Its EC50 is 40 nM.

Q: `CC(C)N(CCOc1ccc(Cc2c(-c3ccc(O)cc3)ccc3cc(O)ccc23)cc1)C(C)C` [Example 3, 6-hydroxy-2-(4-hydroxyphenyl)-1-[4-(2-(N,N-diisopropyl-amino)ethoxy)benzyl]naphthalene hydrochloride] was tested. Which EC50 did it give?
A: Its EC50 is 2 nM.

Q: For `CN1CCCC1COc1ccc(Cc2c(-c3ccc(O)cc3)ccc3cc(O)ccc23)cc1` (centres unmarked) [Example 1, 6-Hydroxy-2-(4-hydroxyphenyl)-1-[4-(N-methylpyrrolidin-2-yl)methoxy-benzyl]naphthalene hydrochloride], which EC50 is on record?
A: Its EC50 is 0.5 nM.

Q: Which EC50 does the source give for `CCN(CC)CCCOc1ccc(Cc2c(-c3ccc(O)cc3)ccc3cc(O)ccc23)cc1` [Example 2, 6-Hydroxy-2-(4-hydroxyphenyl)-1-[4-(3-(N,N-diethylamino)-propoxy)benzyl]naphthalene hydrochloride] here?
A: The EC50 was 0.9 nM.

Q: With `CCCCN(CCCC)CCOc1ccc(Cc2c(-c3ccc(O)cc3)ccc3cc(O)ccc23)cc1` [Example 6, 6-hydroxy-2-(4-hydroxyphenyl)-1-[4-(2-(N,N-di-n-butylamino)-ethoxy)benzyl]naphthalene hydrochloride] as the compound, how does the EC50 read?
A: The EC50 was 2 nM.

Q: For `CC(=O)c1ccc(N2CCN(CCOc3ccc(Cc4c(-c5ccc(O)cc5)ccc5cc(O)ccc45)cc3)CC2)cc1` [Example 8, 6-hydroxy-2-(4-hydroxyphenyl)-1-[4-(2-(4-(4-acetylphenyl)piperazin-1-yl)ethoxy)benzyl]-naphthalene dihydrochloride], which EC50 is on record?
A: The EC50 was 4 nM.

Q: For `O=C1CCCN1CCCOc1ccc(Cc2c(-c3ccc(O)cc3)ccc3cc(O)ccc23)cc1` [Example 16, 6-hydroxy-2-(4-hydroxyphenyl)-1-[4-(3-(pyrollidinon-1-yl)propoxy)benzyl]naphthalene], which EC50 is on record?
A: Its EC50 is 30 nM.

Q: `CCCCN(CCCC)CCCOc1ccc(Cc2c(-c3ccc(O)cc3)ccc3cc(O)ccc23)cc1` [Example 7, 6-hydroxy-2-(4-hydroxyphenyl)-1-[4-(3-(N,N-di-n-butylamino)-propoxy)benzyl]naphthalene hydrochloride] was tested. Which EC50 did it give?
A: The EC50 was 4 nM.

Q: With `Oc1ccc(-c2ccc3cc(O)ccc3c2Cc2ccc(OCCCN3CCC4(CCCCC4)CC3)cc2)cc1` [Example 14, hydrochloride] as the compound, how does the EC50 read?
A: The EC50 was 30 nM.

Q: `Oc1ccc(-c2ccc3cc(O)ccc3c2Cc2ccc(OCCCNc3cccc4ccccc34)cc2)cc1` [Example 9, 6-hydroxy-2-(4-hydroxyphenyl)-1-[4-(3-(naphth-1-ylamino)propoxy)benzyl]naphthalene hydrochloride] was tested. Which EC50 did it give?
A: Its EC50 is 9 nM.

Q: For `CN1CCCC(COc2ccc(Cc3c(-c4ccc(O)cc4)ccc4cc(O)ccc34)cc2)C1` (centres unmarked) [Example 5, 6-hydroxy-2-(4-hydroxyphenyl)-1-[4-(N-methylpiperidin-3-yl)-methoxybenzyl]naphthalene hydrochloride], which EC50 is on record?
A: Its EC50 is 2 nM.
